The text below walks through data of patent US5278158A, “Oxazinobenzazole compounds” (Yamanouchi Pharmaceutical Co., Ltd., priority 1991, dated 1994).

The subject of test [1] is 3,4-Diaminopyridine Induced Rhythmic Contractions. The test can be described thus: Effects on 3,4-Diaminopyridine Induced Rhythmic Contractions (isolated coronary artery rings). Also noted: species or system Mongrel dogs. The settings on record: Canis lupus familiaris, isolated dog coronary artery rings, 10 mM 3,4-diaminopyridine; for pIC50: read-out: IC50 (inhibitory effect on the frequency of the rhythmic contractions); for IC100: read-out: IC100 (inhibitory effect on the frequency of the rhythmic contractions). On the procedure: (1) Effects on 3,4-Diaminopyridine Induced Rhythmic Contractions
The experiment was carried out according to the method of Uchida, Sugimoto, et al. (Myakkangaku, 24, 133-143, 1984). Mongrel dogs of either sex were anesthetized with intravenous administration of 30 mg/Kg pentobarbital and were sacrificed by bleeding and then, the heart was excised from each animal. In the Krebs-Henseleit solution, the left circumflex branch or the anterior descending branch was isolated and cut into rings about 2 mm in width. The ring segments were fixed to a stainless-steal hook, and suspended in 37° C. Krebs-Henseleit solution aerated with a mixed gas (95% O2 and 5% CO2) under a tension load of 1.0 g, and isometric contractions were recorded. After the specimen was stabilized for 30 minutes, and rhythmic contractions were induced by treatment with 10 mM 3,4-diamiopyridine. After the amplitude and frequency of rhythmic contractions became substantially steady, a test compound was cumulatively added to the nutritious solution, and the concentration-response curves for the amplitude and frequency of the contractions were constructed and efficacy was evaluated.
[…] (the concentrations required to inhibit the frequency of the rhythmic contractions) of the compounds of this invention are between 0.1 and 10 μM.

Test [2] relates to blood pressure. The test can be described thus: Effects on the Cardiovascular Systems (anesthetized dogs, i.v.). The settings on record: 10 μg/kg i.v. The class given is in vivo, Mongrel dogs. The procedure:
(2) Effects on the Cardiovascular Systems
Mongrel dogs of either sex were anesthetized with intravenous administration of 30 mg/Kg pentobarbital, and after tracheal intubation, the experiments were performed under artificial respiration. After thoracotomy, heart rate, blood pressure, left ventricle pressure, max. dLVP/dt, pulmonary artery pressure, central venous pressure, cardiac output and the coronary artery blood flow were measured. The effects of test compound on these parameters were evaluated by administering it through the cannula indwelt in the femoral vein. The present compounds are effective for lowering blood pressure at a dose of 1 to 1000 μg/kg i.v.

The subject of the next test is coronary artery. The test can be described thus: Coronary Vasodilating Effect (anesthetized dogs, intracoronary). The class given is in vivo, Mongrel dogs. As to conditions: i.a.; action of 300 μg papaverine set as 100%. The procedure:
(3) Coronary Vasodilating Effect
Mongrel dogs of either sex were anesthetized with intravenous administration of 30 mg/Kg pentobarbital.
After tracheal intubation, the experiments was conducted under artificial respiration. After thoracotomy, the left circumflex branch was perfused with the autologous blood derived from the carotid artery at a constant pressure through an extracorporeal circuit. Coronary blood flow was measured with an electromagnetic flow probe installed in the extra-corporeal circuit. The test compound was administered directly into the coronary artery through the extra-corporeal circuit and the coronary vasodilating effects were evaluated.
The dilating action was expressed as percentage with the action of 300 μg papaverine being set as 100%, and the dose required to produce a blood flow increase of 100% (ED100pap) was calculated.

Test [3] has as its system blood pressure. The test can be described thus: Hypotensive Effect in spontaneously hypertensive rats (oral). Format: in vivo, Spontaneously hypertensive rats (SHR) of Okamoto-Aoki strain. The settings on record: 300 μg/Kg p.o.; conscious SHR. The procedure:
Spontaneously hypertensive rats (SHR) of Okamoto-Aoki strain were anesthetized with pentobarbital, 60 mg/kg i.p. Then, a cannula for blood pressure measurement was indwelt in the left common carotid artery and the other end of the cannula was led out extracorporeally from the posterior neck. After a stabilization period of 4-5 days, blood pressure and heart rate were measured under freely moving condition.
The test compound was suspended in 0.5% methylcellulose solution and the suspension was orally administered in a volume of 5 ml/Kg and the efficacy was evaluated.

pIC50: −log10 of the molar value.

For orientation: pIC50 means the IC50 on a negative log10 scale, so that one unit is a factor of ten. For the molecule `CC1(C)CN(c2cccc[n+]2[O-])c2cc3nonc3cc2O1` [Example 2, 2-(7,8-dihydro-6,6-dimethyl-6H-[1,4]oxazino[2,3-f][2,1,3]benzoxadiazol-8-yl)pyridine N-oxide], in test [1], the pIC50 is 6.82 and the IC100 came to 0.66 µM. Further, in the test on blood pressure [2], the “MBP (mean blood pressure-lowering effect)” value is listed as -33 Δ%. Moreover, the “ED100PAP (dose required to produce a blood flow increase of 100%)” value with coronary artery stood at 3.5 µg. Besides, the MBP with blood pressure [3] was -45 Δ%.

Take `CC1(C)CN(c2cccc[n+]2[O-])c2cc3no[n+]([O-])c3cc2O1` [Example 4, 7,8-Dihydro-6,6-dimethyl-8-(2'-pyridyl)-6H-[1,4]oxazino[2,3-f][2,1,3]benzoxadiazole 3,1'-dioxide]: in test [1], the pIC50 is 6.77 and the IC100 is 1.23 µM. Also, the “MBP (mean blood pressure-lowering effect)” value in the test with blood pressure [2] is listed as -10 Δ%.
